Measurements published in US20260137687A1, “GTPase INHIBITORS AND USES THEREOF” (The Regents of The University of California, priority 2022, published 2026).

Experiments:
[1] = permeability controls; cited from earlier work
[2] = target: T1, K-Ras(G12R)·GDP (Homo sapiens, UniProt P01116, G12R); test: Intact protein mass spectrometry, covalent modification; format: binding; conditions: 100 μM compound, pH 7.5, 23° C.; adducts +656 Da and +638 Da
T1 construct: human K-Ras (G12R, aa 1-169); 6xHis tag + TEV cleavage site (N, cleaved yes); made in house; host or cells: E. coli BL21(DE3)
Experimental: Purified K-Ras variants (4 μM final) were incubated with compounds at 50 or 100 μM (1% v/v DMSO final) in 20 mM HEPES pH 7.5, 150 mM NaCl, 1 mM MgCl2 in a total volume of 150 μL. After the noted time, the samples were analyzed by intact protein LC/MS using a Waters Xevo G2-XS system equipped with an Acquity UPLC BEH C4 1.7 μm column. The mobile phase was a linear gradient of 5-95% acetonitrile/water+0.05% formic acid. The spectra were processed using QuantLynx, giving the ion counts observed for the most abundant species. For assays conducted under an alternate pH, the HEPES buffer was replaced with one of the following buffers (maintaining 150 mM NaCl and 1 mM MgCl2): 20 mM MES pH 6 or 20 mM Tris pH 9.

[3] = target: T2, K-Ras(G12R) Cyslight bound by GDP (Homo sapiens, UniProt P01116, C118S/C51S/C80L/G12R); test: LC-MS analysis of adduct formation for crystallization; format: binding; conditions: 100 μM protein, 200 μM compound, 23° C.
T2 construct: human K-Ras G12R Cyslight (G12R/C51S/C80L/C118S, aa 1-169); 6xHis tag + TEV cleavage site (N, cleaved yes); made in house; host or cells: E. coli BL21(DE3)
Experimental: K-Ras(G12R) Cyslight ([…]/C51S/C80L/C118S) bound by GDP purified by size exclusion chromatography was diluted to 100 μM in Reaction Buffer (20 mM HEPES 7.5, 150 mM NaCl, 1 mM MgCl2). […] The reaction mixture was purified by size exclusion chromatography (Superdex75, 20 mM HEPES 7.5, 150 mM NaCl, 1 mM MgCl2) and concentrated to 20 mg/mL. For crystallization, 0.1 μL of the protein was mixed with 0.1 μL well buffer containing 0.1 M MES pH 6.5, 30% w/v PEG 4K. Crystals were grown at 20° C. in a 96-well plate using the hanging-drop vapor diffusion method. Maximal crystal growth was achieved after 7 days. The crystals were transferred to a cryoprotectant solution (0.1 M MES pH 6.5, 30% w/v PEG 4K, 15% glycerol) and flash-frozen in liquid nitrogen.

[4] = system: BaF3/G12R cells (±IL-3), TCC-Pan-2 cells, and A375 cells; test: Cellular activity (phospho-ERK immunoblot, growth inhibition); format: cell-based; conditions: at concentrations below 100 μM
Experimental: When indicated, cells were treated with drugs at 40-60% confluency at a final DMSO concentration of 1%. At the end of treatment period, cells were placed on ice. Unless otherwise indicated, adherent cells were washed once with ice-cold PBS (1 mL), scraped with a spatula, and pelleted by centrifugation (500×g, 5 min). Suspension cells were pelleted by centrifugation (500×g, 5 min), washed with 1 mL ice-cold PBS, and pelleted again. Cells were lysed in RIPA buffer supplemented with protease and phosphatase inhibitors (cOmplete and phosSTOP, Roche) on ice for 10 min. Lysates were clarified by high-speed centrifugation (19,000×g, 10 min). Concentrations of lysates were determined with protein BCA assay (Thermo Fisher) and adjusted to 2 mg/mL with additional RIPA buffer (or Co-IP Lysis Buffer). Samples were mixed with 5×SDS Loading Dye and heated at 95° C. for 5 min.
Cells were seeded into 96-well white flat bottom plates (1,000 cells/well) (Corning) and incubated overnight. Cells were treated with the indicated compounds in a nine-point threefold dilution series (100 μL final volume) and incubated for 72 h. Cell viability was assessed using a commercial CellTiter-Glo (CTG) luminescence-based assay (Promega). […] Plates were placed on an orbital shaker for 30 min before recording luminescence using a Spark 20M (Tecan) plate reader.

## O=C(N[C@H](CO)[C@H](O)c1ccc([N+](=O)[O-])cc1)C(Cl)Cl [Chloramphenicol]
[1]
  permeability class of PAMPA control: high

## O=C(O)Cc1ccccc1Nc1c(Cl)cccc1Cl [Diclofenac]
[1]
  permeability class of PAMPA control: medium

## CC(=O)CC(=O)N1[C@@H]2CC[C@H]1CN(c1nc(OCC34CCCN3CCC4)nc3c(F)c(-c4cccc5cccc(Cl)c45)ncc13)C2 [compound 2, 1-((1R,5S)-3-(7-(8-chloronaphthalen-1-yl)-8-fluoro-2-((tetrahydro-1H-pyrrolizin-7a(5H)-yl)methoxy)pyrido[4,3-d]pyrimidin-4-yl)-3,8-diazabicyclo[3.2.1]octan-8-yl)butane-1,3-dione]
[2]
  covalent adduct formation with recombinant K-Ras(G12R)·GDP: did not form any detectable covalent adduct

## CC(=O)C(O)(O)C(=O)N1CCN(c2nc(OCC34CCCN3CCC4)nc3c(F)c(-c4cccc5cccc(Cl)c45)ncc23)C[C@@H]1CC#N [compound 4, (S)-2-(4-(7-(8-chloronaphthalen-1-yl)-8-fluoro-2-((tetrahydro-1H-pyrrolizin-7a(5H)-yl)methoxy)pyrido[4,3-d]pyrimidin-4-yl)-1-(2,2-dihydroxy-3-oxobutanoyl)piperazin-2-yl)acetonitrile]
[3]
  conversion of K-Ras(G12R) Cyslight·GDP to covalent adduct: full conversion to a single covalent adduct
[4]
  cellular activity: did not show cellular activity
